From BindingDB's records for doi:10.1016/s0960-894x(03)00677-2 (Pharmacor, 2003)

Molecular target: T1, Dimer of Gag-Pol polyprotein [501-599] (Human immunodeficiency virus 1, UniProt P03367)
T1 construct: 501-599
Assay: Protease Inhibition Assay
Details: pH 4.7; 30 °C
Method: HIV-1 protease activity was measured by a continuous fluorometric assay using the internally quenched fluorogenic substrate DABCYL-Ser-Gln-Asn-Tyr-Pro-Ile-Val-Gln-EDANS. The proteolytic activity can be monitored by the increase in fluorescence intensity, and the protease products were analyzed by HPLC.

O[C@H]([C@H](O)[C@@H](COCc1ccccc1)OCc1ccccc1)[C@@H](COCc1ccccc1)OCc1ccccc1 [(2R,3R,4S,5R)-1,2,5,6-tetrakis(benzyloxy)hexane-3,4-diol]
IC50: > 50 µM

O[C@H]([C@H](O)[C@H](COCc1ccccc1)OCc1ccccc1)[C@@H](COCc1ccccc1)OCc1ccccc1 [(2R,3R,4S,5S)-1,2,5,6-tetrakis(benzyloxy)hexane-3,4-diol]
IC50: > 50 µM

O[C@@H]([C@H](O)[C@@H](COc1ccccc1)OCc1ccccc1)[C@@H](COc1ccccc1)OCc1ccccc1 [(2R,3S,4S,5R)-2,5-bis(benzyloxy)-1,6-diphenoxyhexane-3,4-diol]
IC50: > 50 µM

O[C@@H]([C@H](O)[C@@H](Cc1ccccc1)OCc1ccccc1)[C@@H](Cc1ccccc1)OCc1ccccc1 [(2R,3S,4S,5R)-2,5-bis(benzyloxy)-1,6-diphenylhexane-3,4-diol]
IC50: > 50 µM

O[C@@H]([C@H](O)[C@@H](COCc1ccccc1)OCc1ccccc1)[C@H](COCc1ccccc1)OCc1ccccc1 [(2R,3S,4S,5S)-1,2,5,6-tetrakis(benzyloxy)hexane-3,4-diol]
IC50: > 50 µM

O[C@@H](C[C@@H](COCc1ccccc1)OCc1ccccc1)[C@@H](COCc1ccccc1)OCc1ccccc1 [(2R,3S,5S)-1,2,5,6-tetrakis(benzyloxy)hexan-3-ol]
IC50: > 50 µM

O[C@H]([C@@H](O)[C@H](COCc1ccccc1)OCc1ccccc1)[C@H](COCc1ccccc1)OCc1ccccc1 [(2S,3R,4R,5S)-1,2,5,6-tetrakis(benzyloxy)hexane-3,4-diol]
IC50: > 50 µM
